Assay results from patent US10030027B2, “Soluble guanylate cyclase stimulators” (MERCK SHARP & DOHME CORP., priority 2015, dated 2018).

What was measured:
[1] = target: human recombinant sGC enzyme (Homo sapiens (Human), UniProt Q02108+Q02153); experiment: Size Exclusion Chromatography (SEC) competition binding assay using [3H] Ex-77B as the radioligand; conditions: [3H] Ex-77B radioligand, 24 hours at 37° C.
Outline: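 Recombinant human sGC binding measured by competition against tritiated Ex-77B radioligand, with non-specific binding defined by 1 μM unlabeled Ex-77B.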

[2] = target: sGC α1/β1 heterodimer (Homo sapiens (Human), UniProt Q02108+Q02153); experiment: Cell-based sGC functional assay (cyclic GMP assay for sGC activator: CASA assay); design: % Activation: concentration or dose not given beside the values; conditions: CHO-K1/sGC cells; for Emax: CHO-K1, activity expressed as percentage of compound A (standard), read-out: % Activation; for EC50: inflection point, 4P fit, read-out: IP; for % Activation: activity expressed as percentage of compound A (standard)
Outline: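 CHO-K1 cells stably expressing human sGC α1/β1 were pre-incubated 30 min at 25° C with or without 1 μM DETA-NO, then exposed to compound for 1 hr at 37° C with 0.5 mM IBMX and 2.5% DMSO final. Intracellular cGMP was measured by HTRF, expressed as % of reference sGC-HDA maximum; inflection point and maximum fold induction came from 4-parameter fits.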

Structure (SMILES) | Ki [1] [nM] | Emax [2] [%] | EC50 [2] [nM] | % Activation [2] [%]
CC(C)(Cc1csc([C@]2(C)C(=O)Nc3nc(-c4nn(Cc5ccccc5F)c5cc(F)ccc45)nc(N)c32)n1)C(=O)O [Example 62A, (S)-3-(2-{4-amino-2-[6-fluoro-1-(2-fluorobenzyl)-1H-indazol-3-yl]-5-methyl-6-oxo-6,7-dihydro-5H-pyrrolo[2,3-d]pyrimidin-5-yl}-1,3-thiazol-4-yl)-2,2-dimethylpropanoic acid] | 0.022 | 148 | 141 | 
CC(C)(Cc1coc(C2(C)C(=O)Nc3nc(-c4nn(Cc5cccc(F)c5)c5cc(Cl)ccc45)nc(N)c32)n1)C(=O)O (centres unmarked) [Example 175A, 3-(2-{4-amino-2-[6-chloro-1-(3-fluorobenzyl)-1H-indazol-3-yl]-5-methyl-6-oxo-6,7-dihydro-5H-pyrrolo[2,3-d]pyrimidin-5-yl}-1,3-oxazol-4-yl)-2,2-dimethyl-propanoic acid] | 0.151 | 139 | 96 | 
C[C@@]1(c2ccc(CCC(=O)O)cc2)C(=O)Nc2nc(-c3nn(CCCC(F)(F)F)c4nc(Cl)ccc34)nc(N)c21 [Example 19B, (S)-3-(4-{4-amino-2-[6-chloro-1-(4,4,4-trifluorobutyl)-1H-pyrazolo[3,4-b]pyridin-3-yl]-5-methyl-6-oxo-6,7-dihydro-5H-pyrrolo[2,3-d]pyrimidin-5-yl}phenyl)propanoic acid] | 0.286 | 89 | 1040 | 
C[C@@]1(c2ccc(CCC(=O)O)cc2)C(=O)Nc2nc(-c3nn(Cc4ccccc4F)c4cc(F)ccc34)nc(N)c21 [Example 60B, (S)-3-(4-{4-amino-2-[6-fluoro-1-(2-fluorobenzyl)-1H-indazol-3-yl]-5-methyl-6-oxo-6,7-dihydro-5H-pyrrolo[2,3-d]pyrimidin-5-yl}phenyl)propanoic acid] | 0.102 | 128 | 167 | 
CC(C)(Cc1ccc(C2(C)C(=O)Nc3nc(-c4nn(CCCC(F)(F)F)c5cc(Cl)ccc45)nc(N)c32)cc1)C(=O)O (centres unmarked) [Example 42B, 3-(4-{4-amino-2-[6-chloro-1-(4,4,4-trifluorobutyl)-1H-indazol-3-yl]-5-methyl-6-oxo-6,7-dihydro-5H-pyrrolo[2,3-d]pyrimidin-5-yl}phenyl)-2,2-dimethylpropanoic acid] | 0.951 | 84 | 1050 | 
CC1(N2CCC(CCC(=O)O)C2)C(=O)Nc2nc(-c3nn(Cc4ccccc4F)c4cc(Cl)ccc34)nc(N)c21 (single isomer, unassigned) [Example 261D, 3-[1-{4-Amino-2-[6-chloro-1-(2-fluorobenzyl)-1H-indazol-3-yl]-5-methyl-6-oxo-6,7-dihydro-5H-pyrrolo[2,3-d]pyrimidin-5-yl}pyrrolidin-3-yl]propanoic acid] | 0.187 |  | 444 | 103.8
Nc1nc(-c2nn(Cc3ccccc3F)c3ncccc23)nc2c1C(c1ccc(CCC(=O)O)cc1)(C1CC1)C(=O)N2 (centres unmarked) [Example 148A, 3-(4-{4-amino-5-cyclopropyl-2-[1-(2-fluorobenzyl)-1H-pyrazolo[3,4-b]pyridin-3-yl]-6-oxo-6,7-dihydro 5H-pyrrolo[2,3-d]pyrimidin-5-yl}phenyl)propanoic acid] | 0.123 | 87.8 | 238 | 
CC(C)(Cc1csc([C@]2(C)C(=O)Nc3nc(-c4nn(CC5CCCCC5)c5cc(F)ccc45)nc(N)c32)n1)C(=O)O [Example 201A, (S)-3-(2-{4-amino-2-[1-(cyclohexyl-methyl)-6-fluoro-1H-indazol-3-yl]-5-methyl-6-oxo-6,7-dihydro-5H-pyrrolo[2,3-d]pyrimidin-5-yl}-1,3-thiazol-4-yl)-2,2-dimethyl-propanoic acid] | 0.151 | 91.2 | 39 | 
CC1(c2ccc(C(=O)O)cn2)C(=O)Nc2nc(-c3nn(Cc4ccccc4F)c4cc(Cl)ccc34)nc(N)c21 (centres unmarked) [Example 254A, 6-{4-Amino-2-[6-chloro-1-(2-fluorobenzyl)-1H-indazol-3-yl]-5-methyl-6-oxo-6,7-dihydro-5H-pyrrolo[2,3-d]pyrimidin-5-yl}pyridine-3-carboxylic acid] | 0.199 | 123 | 1010 | 
CC1CCC(Cn2nc(-c3nc(N)c4c(n3)NC(=O)C4(C)c3nc(CC(C)(C)C(=O)O)co3)c3ccccc32)CC1 (single isomer, unassigned) [Example 231AB, 3-{2-[4-amino-5-methyl-2-{1-[4-methylcyclo-hexylmethyl]-1H-indazol-3-yl}-6-oxo-6,7-dihydro-5H-pyrrolo[2,3-d]pyrimidin-5-yl]-1,3-oxazol-4-yl}-2,2-dimethyl-propanoic acid] | 0.087 |  | 529 | 127.9
Cc1cccc(Cn2nc(-c3nc(N)c4c(n3)NC(=O)C4(C)c3nc(CC(C)(C)C(=O)O)co3)c3ccc(Cl)cc32)c1 (centres unmarked) [Example 186A, 3-(2-{4-amino-2-[6-chloro-1-(3-methylbenzyl)-1H-indazol-3-yl]-5-methyl-6-oxo-6,7-dihydro-5H-pyrrolo[2,3-d]pyrimidin-5-yl}-1,3-oxazol-4-yl)-2,2-dimethyl-propanoic acid] | 0.12 | 83.3 | 205 | 
CC1(c2ccc(CC(=O)O)cc2)C(=O)Nc2nc(-c3nn(Cc4ccccc4F)c4ncccc34)nc(N)c21 (centres unmarked) [Example 114A, (4-{4-Amino-2-[1-(2-fluorobenzyl)-1H-pyrazolo[3,4-b]pyridin-3-yl]-5-methyl-6-oxo-6,7-dihydro-5H-pyrrolo[2,3-d]pyrimidin-5-yl}phenyl)acetic acid] | 0.092 | 108 | 1340 | 
C[C@@]1(c2ccc(CCC(=O)O)cc2)C(=O)Nc2nc(-c3nn(Cc4ncccc4F)c4cc(Cl)ccc34)nc(N)c21 (single isomer, unassigned) [Example 57B] | 0.096 | 104 | 1080 | 
CC(C)(Cc1csc([C@]2(C)C(=O)Nc3nc(-c4nn(Cc5ccccc5F)c5ncc(F)cc45)nc(N)c32)n1)C(=O)O [Example 91B, (S)-3-(2-{4-amino-2-[5-fluoro-1-(2-fluorobenzyl)-1H-pyrazolo[3,4-b]pyridin-3-yl]-5-methyl-6-oxo-6,7-dihydro-5H-pyrrolo[2,3-d]pyrimidin-5-yl}-1,3-thiazol-4-yl)-2,2-dimethylpropanoic acid] | 0.18 | 123 | 132 | 
CC(C)(Cc1coc(C2(C)C(=O)Nc3nc(-c4nn(Cc5c(F)ccc(F)c5F)c5cc(Cl)ccc45)nc(N)c32)n1)C(=O)O (centres unmarked) [Example 189A, 3-(2-{4-amino-2-[6-chloro-1-(2,3,6-trifluorobenzyl)-1H-indazol-3-yl]-5-methyl-6-oxo-6,7-dihydro-5H-pyrrolo[2,3-d]pyrimidin-5-yl}-1,3-oxazol-4-yl)-2,2-dimethyl-propanoic acid] | 0.049 | 116 | 51 | 
CC1(N2CCC(CCC(=O)O)C2)C(=O)Nc2nc(-c3nn(Cc4ccccc4F)c4cc(Cl)ccc34)nc(N)c21 (single isomer, unassigned) [Example 261C, 3-[1-{4-Amino-2-[6-chloro-1-(2-fluorobenzyl)-1H-indazol-3-yl]-5-methyl-6-oxo-6,7-dihydro-5H-pyrrolo[2,3-d]pyrimidin-5-yl}pyrrolidin-3-yl]propanoic acid] | 0.074 |  | 293 | 
Cc1ccc(F)c(Cn2nc(-c3nc(N)c4c(n3)NC(=O)[C@@]4(C)c3nc(CC(C)(C)C(=O)O)cs3)c3ccc(Cl)cc32)c1 (single isomer, unassigned) [Example 214A] | 0.267 | 116 | 320 | 
Cc1cccc(Cn2nc(-c3nc(N)c4c(n3)NC(=O)C4(C)c3nc(CC(C)(C)C(=O)O)co3)c3ccccc32)c1 (centres unmarked) [Example 226A, 3-(2-{4-amino-5-methyl-2-[1-(3-methylbenzyl)-1H-indazol-3-yl]-6-oxo-6,7-dihydro-5H-pyrrolo[2,3-d]pyrimidin-5-yl}-1,3-oxazol-4-yl)-2,2-dimethyl-propanoic acid] | 0.176 | 112 | 355 | 
C[C@@]1(c2ccc(CCC(=O)NCc3nn[nH]n3)cc2)C(=O)Nc2nc(-c3nn(Cc4ccccc4F)c4ncccc34)nc(N)c21 [Example 108B, (S)—N-((2H-Tetrazol-5-yl)methyl)-3-(4-{4-amino-2-[1-(2-fluorobenzyl)-1H-pyrazolo[3,4-b]pyridin-3-yl]-5-methyl-6-oxo-6,7-dihydro-5H-pyrrolo[2,3-d]pyrimidin-5-yl}phenyl)propanamide] | 0.056 | 122 | 842 | 
Cc1oc(C2(C)C(=O)Nc3nc(-c4nn(Cc5ccccc5F)c5cc(Cl)ccc45)nc(N)c32)nc1CC(C)(C)C(=O)O (centres unmarked) [Example 170B, 3-(2-{4-amino-2-[6-chloro-1-(2 fluorobenzyl)-1H-indazol-3-yl]-5-methyl-6-oxo-6,7-dihydro-5H-pyrrolo[2,3-d]pyrimidin-5-yl}-5-methyl-1,3-oxazol-4-yl)-2,2-dimethylpropanoic acid] | 0.118 | 130 | 655 | 
CC(C)(Cc1csc([C@]2(C)C(=O)Nc3nc(-c4nn(CC5CCCCC5)c5ncccc45)nc(N)c32)n1)C(=O)O (single isomer, unassigned) [Example 151A] | 0.124 | 131 | 194 | 
